Experimental data as given in patent publication US20030134859A1 (SANKYO COMPANY, LIMITED, priority 2000, published 2003).
Where two headings read alike, the source gives them in different places.

Tested on: Mouse preadipocyte strain 3T3-L1
Assay: Inhibition of differentiation as an indication of acetic acid uptake
Format: cell-based
Conditions: control (0.01% dimethylsulfoxide) = 100%; for activity at 0.1 µM: Mus musculus, read-out: Rate of Uptake (%) of [2-14C] acetic acid
Summary of the method: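 Confluent 3T3-L1 cells induced to differentiate for 4 days (insulin, IBMX, dexamethasone, 5% FBS) with test compound at 0.1 μM final or 0.01% DMSO, then 2 days in insulin maintenance medium, at 37 °C, 10% CO2. [2-14C]acetic acid uptake over 1 hr counted by scintillation; expressed as % of DMSO control.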

Structure (SMILES) | activity at 0.1 µM (0.1 μM test substance) [%] | activity at 0.1 µM (3T3-L1, 0.1 μM test substance) [%] | other results
O=C(Nc1ccc(-c2ccc([N+](=O)[O-])cc2)cc1)c1cc([N+](=O)[O-])ccc1Cl [Example 9, N-[4-(4-Nitrophenyl)phenyl)-(2-chloro-5-nitrophenyl)carboxamide] | 59.9 | – | –
CCCc1ccc(NC(=O)c2cc([N+](=O)[O-])ccc2Cl)cc1 [Example 15, N-(4-Propylphenyl)-(2-chloro-5-nitrophenyl)carboxamide] | – | 78.4 | –
O=C(Nc1ccc(OC(F)(F)F)cc1)c1cc([N+](=O)[O-])ccc1Cl [Example 18, N-(4-Trifluoromethyloxyphenyl)-(2-chloro-5-nitrophenyl)carboxamide] | – | 53.8 | –
N#Cc1cccc(NC(=O)c2cc([N+](=O)[O-])ccc2Cl)c1 [Example 21, N-(3-Cyanophenyl)-(2-chloro-5-nitrophenyl)carboxamide] | – | 70.3 | –
O=C(Nc1ccc([N+](=O)[O-])cc1)c1cc([N+](=O)[O-])ccc1Cl [Example 23, N-(4-Nitrophenyl)-(2-chloro-5-nitrophenyl)carboxamide] | 59.5 | – | –
O=C(Nc1ccc([N+](=O)[O-])cn1)c1cc([N+](=O)[O-])ccc1Cl [Example 24, N-(5-Nitropyridin-2-yl)-(2-chloro-5-nitrophenyl)carboxamide] | 66.1 | – | –
O=C(Nc1cccc([N+](=O)[O-])c1)c1cc([N+](=O)[O-])ccc1Cl [Example 25, N-(3-Nitrophenyl)-(2-chloro-5-nitrophenyl)carboxamide] | 66.3 | – | –
O=C(Nc1cc([N+](=O)[O-])ccc1Cl)c1cc([N+](=O)[O-])ccc1Cl [Example 28, N-(2-Chloro-5-nitrophenyl)-(2-chloro-5-nitrophenyl)carboxamide] | 87.8 | – | –
O=C(Nc1cccc(C(=O)N2CCCC2)c1)c1cc([N+](=O)[O-])ccc1Cl [Example 31] | – | – | Rate of Uptake (%) of [2-14C] acetic acid (0.1 μM test substance): 85.9%
Cc1ccc(S(=O)(=O)Nc2ccc(NC(=O)c3cc([N+](=O)[O-])ccc3Cl)cc2)cc1 [Example 32, N-[4-(4-Methylbenzene)sulfonylaminophenyl]-(2-chloro-5-nitrophenyl)carboxamide] | – | – | Rate of Uptake (%) of [2-14C] acetic acid (0.1 μM test substance): 60.5%
O=C(Nc1nc2ccc([N+](=O)[O-])cc2s1)c1cc([N+](=O)[O-])ccc1Cl [Example 34, N-(6-Nitrobenzothiazol-2-yl)-(2-chloro-5-nitrophenyl)carboxamide] | 60.8 | – | –
O=C(Nc1nc(-c2cccs2)cs1)c1cc([N+](=O)[O-])ccc1Cl [Example 36, N-[4-(2-Thienyl)thiazol-2-yl)-(2-chloro-5-nitrophenyl)carboxamide] | – | 29.2 | –
O=C(Nc1nc(-c2ccc3ccccc3c2)cs1)c1cc([N+](=O)[O-])ccc1Cl [Example 42, N-[4-(2-Naphthyl)thiazol-2-yl)-(2-chloro-5-nitrophenyl)carboxamide] | – | 60 | –
O=C(Nc1nc(-c2ccc(Cl)c(Cl)c2)cs1)c1cc([N+](=O)[O-])ccc1Cl [Example 43, N-[4-(3,4-Dichlorophenyl)thiazol-2-yl]-(2-chloro-5-nitrophenyl)carboxamide] | – | 56.7 | –
O=C(Nc1ccncc1)c1cc([N+](=O)[O-])ccc1Cl [Example 49, N-(4-Pyridyl)-(2-chloro-5-nitrophenyl)carboxamide] | – | – | Rate of Uptake (%) of [2-14C] acetic acid (0.1 μM test substance): 69.6%
O=C(Nc1cnc2ccccc2c1)c1cc([N+](=O)[O-])ccc1Cl [Example 55, N-(3-Quinolinyl)-(2-chloro-5-nitrophenyl)carboxamide] | – | 55.4 | –
O=C(Nc1nccc2ccccc12)c1cc([N+](=O)[O-])ccc1Cl [Example 59, N-(Isoquinolin-1-yl)-(2-chloro-5-nitrophenyl)carboxamide] | – | 36.3 | –
O=C(Nc1ccc(Cl)nc1)c1cc([N+](=O)[O-])ccc1Cl [Example 62, N-(6-Chloropyridin-3-yl)-(2-chloro-5-nitrophenyl)carboxamide] | – | 82.9 | –
O=C(Nc1ccc(NC(=O)c2cc([N+](=O)[O-])ccc2Cl)nc1)c1cc([N+](=O)[O-])ccc1Cl [Example 64, 2,5-bis(2-Chloro-5-nitrobenzoylamino)pyridine] | 96.2 | – | –
